14 compounds from PubChem BioAssay (NCI) can be followed below.

Structures are written as SMILES.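 Cultured in 96-well plates, cells were exposed to test compound for 48 hours across five concentrations. TGI marks complete inhibition of growth.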

Test in all cases: growth of human tumour cells (NCI), 48 h
The test system of experiment [1] is SF-268 CNS.
Experiment [2] has as its system A549 NSCLC.
Experiment [3] concerns M14 melanoma.
The subject of experiment [4] is HOP-92 NSCLC.
Experiment [5] concerns CCRF-CEM leukemia.
Experiment [6] concerns NCI-H226 lung.
The subject of experiment [7] is HT29 colon.
Experiment [8] has as its system RXF 393 renal.
Experiment [9] deals with OVCAR-4 ovarian.
Experiment [10] has as its system HOP-62 NSCLC.
Experiment [11] has as its system NCI/ADR-RES ovarian.
Experiment [12] concerns BT-549 breast.

In the case of `COc1c(C)cc2c(C(C)C)c(O)c(O)c(C=O)c2c1O`, the TGI in [1] was greater than 100 µM; in experiment [2] it was greater than 100 µM; in [3] it was 64.4 µM; in experiment [4] it was greater than 100 µM; in experiment [5], greater than 100 µM; in experiment [6] it was 57.2 µM. In addition, the TGI was 47.1 µM in experiment [7], 55.2 µM in experiment [8] and 63.9 µM in experiment [9].
For the compound `CCOC(=O)C(=O)C=P(c1ccccc1)(c1ccccc1)c1ccccc1`, the TGI in [1], in [2], in [3], in [4], in experiment [5] and in experiment [6] was greater than 100 µM in each case. The TGI in experiment [7], in experiment [8], in [9] and in [10] was greater than 100 µM throughout.
As to `N#CCc1c(-c2ccccc2)n(S(=O)(=O)c2ccccc2)c2ccccc12`, the TGI in experiment [1], in experiment [2], in experiment [3], in experiment [4], in experiment [5] and in experiment [6] was greater than 100 µM each time. The TGI in experiment [7], in [9] and in experiment [10] was greater than 100 µM in each case.
For `N/N=C1\C(=O)N(Cc2ccccc2)C(=O)C1C(=O)NCc1ccccc1` (configuration not stated), the TGI in [1], in experiment [2], in experiment [3], in experiment [4], in [5] and in experiment [7] was greater than 100 µM throughout. For the same compound, the TGI in experiment [8], in experiment [9] and in experiment [10] was greater than 100 µM throughout.
On to `O=C(/C=C\c1cccc2ccccc12)c1ccc(F)cc1`, for which the TGI in experiment [1] was 30.8 µM; in experiment [2], 81.2 µM; in experiment [3], 29.9 µM; in experiment [4], 39.8 µM; in experiment [5], 41.8 µM; in experiment [6], greater than 100 µM. The TGI was 36.6 µM in experiment [7], 36.9 µM in experiment [9] and greater than 100 µM in experiment [10].
On to `Cc1c[n+]2c3ccccc3c3ccccc3c2s1`, for which the TGI was 3.27 µM in [1]; greater than 100 µM in experiment [2]; 35.4 µM in [3]; 47.4 µM in experiment [4]; 28.4 µM in [5]; 3.89 µM in experiment [6]. Moreover, the TGI in [7] is greater than 100 µM; in experiment [8], 0.559 µM; in experiment [9], 32.7 µM; in experiment [10], 28 µM.
On to `O=C/C1=C/C2=Cc3ccccc3C=C(/C=C(/C=O)C1)C2`, for which the TGI in experiment [1] was greater than 100 µM; in experiment [2] it was greater than 100 µM; in experiment [3], greater than 100 µM; in experiment [4] it was 87.9 µM; in experiment [5], 74.9 µM; in experiment [6], greater than 100 µM. Further, the TGI in [7] was greater than 100 µM; in experiment [8], 88.6 µM; in experiment [9], greater than 100 µM; in experiment [10] it was greater than 100 µM.
For `COc1cccc(/C=N/NC(=O)CSCC(=O)N/N=C/c2cccc(OC)c2OC)c1OC`, the TGI in [1], in experiment [2], in [3], in experiment [4], in experiment [6] and in experiment [7] was greater than 100 µM in each case. The TGI in experiment [8], in [9], in [10] and in experiment [11] was greater than 100 µM each time.
Turning to `CCOC(=O)Cn1c2ccccc2c(=O)c2cc(C)c(C)c(C#N)c21`, the TGI in experiment [1], in experiment [2], in experiment [4], in experiment [5], in [6] and in experiment [7] was greater than 100 µM throughout. The TGI in [8] and in [10] was greater than 100 µM each time.
For the compound `CCc1c2c(cc3c1CC1(C3)Cc3cc4c(c(C(=O)OC)c3C1)CCCC4)CCCC2` (configuration not stated), the TGI in experiment [2], in [3], in [4], in experiment [5], in experiment [6] and in [7] was greater than 100 µM throughout. The TGI in [8], in [9], in experiment [10] and in experiment [11] was greater than 100 µM each time.
For the compound `CC1(c2sccc2Cl)CC(c2sccc2Cl)=C(C#N)C(=C(C#N)C#N)N1` (configuration not stated), the TGI in experiment [1] is 38.5 µM; in experiment [2], 75.6 µM; in experiment [3], 42.7 µM; in experiment [12], 32.3 µM; in experiment [5], greater than 100 µM; in [7], 54.6 µM. Further, the TGI in experiment [8] came out at 42.4 µM; in [9], 66.1 µM; in experiment [10], 37.3 µM; in experiment [11] it was 57.8 µM.
Turning to `CC12C3C4C1C1C2C3C41CO` (configuration not stated), the TGI in experiment [2], in experiment [3], in experiment [4], in experiment [5], in [6] and in [7] was greater than 100 µM each time. For the same compound, the TGI in experiment [8], in experiment [9] and in experiment [11] was greater than 100 µM in each case.
Consider `Cc1cccc(-n2c(N)c(-c3nc4ccccc4[nH]3)sc2=S)c1`, for which the TGI in experiment [1] was greater than 100 µM; in experiment [2], 71.9 µM; in experiment [3], 48.4 µM; in experiment [5] it was greater than 100 µM; in [6], 73.9 µM; in experiment [7], 56.6 µM. Besides, the TGI was 72.9 µM in experiment [8], greater than 100 µM in experiment [9] and 78.9 µM in experiment [10].
Consider `N#CC(/C(CCC(=O)Nc1ccc(Cl)cc1)=N/NC(=O)c1cc2ccccc2cc1O)c1ccccc1` (configuration not stated), for which the TGI in experiment [1] was greater than 100 µM; in experiment [2], greater than 100 µM; in [3], greater than 100 µM; in experiment [4], greater than 100 µM; in [5] it was 49.4 µM; in experiment [6], greater than 100 µM. In addition, the TGI in experiment [7] was greater than 100 µM; in experiment [8], greater than 100 µM; in experiment [9] it was greater than 100 µM; in [10] it was 85.3 µM.
